Legend:
[1] = test system: Conn score (mental state grade) in subjects with HE; test: Time to any increase from baseline in Conn score, first study; format: in vivo, human
Description: Measurements of change in mental status may be done, for example, by the Conn score (also known as the West Haven score). The Conn score has been widely used as a measure of mental state in HE studies and is based on the criteria of Parsons-Smith as modified by Conn. Asterixis will not be considered when assessing the subject's status using the Conn scoring criteria listed below.
(§1) The scale used in the Conn scoring system is provided below. • Grade 0=No personality or behavioral abnormality detected • Grade 1=Trivial lack of awareness, euphoria or anxiety; shortened attention span; impairment of addition or subtraction • Grade 2=Lethargy; disorientation for time; obvious personality change; inappropriate behavior • Grade 3=Somnolence to semi-stupor, responsive to stimuli; confused; gross disorientation; bizarre behavior • Grade 4=Coma; unable to test mental state
(§2) FIG. 11 illustrates time to any increase from baseline in Conn score by treatment group in the ITT population. Table 20 presents estimates of the proportions of subjects who had any increase in Conn score over the course of the Treatment Period and results of statistical analyses. Subjects who discontinued prior to experiencing an increase in Conn score and prior to completion of the 6-month treatment period were censored at the time of discontinuation.

[2] = test system: Conn score in subjects with HE; test: Level of change from baseline in Conn score by treatment group, first study; format: in vivo, human; conditions: 550 mg BID, Baseline to EOT
Description: as §1
Change in mental status was measured by the Conn score (also known as the West Haven score). The Conn score has been widely used as a measure of mental state in HE studies and is based on the criteria of Parsons-Smith as modified by Conn. The scale used in the Conn scoring system is described above.

[3] = test system: patients with HE; conditions: 6-month study; rifaximin 1200 mg/day, neomycin 3 g/day; 14 days on, 14 days off per month; cited from earlier work
[4] = test system: asterixis grade in subjects with HE; test: Time to any increase from baseline in asterixis grade, first study; format: in vivo, human; conditions: for Probability of no increase in asterixis grade: Kaplan-Meier estimate, ITT; for Probability of no increase in asterixis grade / Cummulative number of events (increase in asterixis grade) / Number of events (increase in asterixis grade): Rifaximin N = 140; for Cummulative number of events (increase in asterixis grade) / Number of events (increase in asterixis grade): ITT population
Experimental: (§3) Asterixis (flapping tremor) was determined with the subject holding both arms and forearms extended with wrists dorsiflexed and fingers open for ≥30 seconds. Asterixis was measured on a continuum of 5 grades, e.g., grades 0 and 4=no abnormal movement vs. almost continuous flapping motions, respectively as shown below: • Grade 0=No tremors; • Grade 1=Rare flapping motions; • Grade 2=Occasional, irregular flaps; • Grade 3=Frequent flaps; and • Grade 4=Almost continuous flapping motions.
Efficacy in regard to asterixis grade was measured as time to any increase from baseline in asterixis grade.
as §2, with “12” for “11”, “asterixis grade” for “Conn score”, “population in the first study.” for “population.”, “21” for “20”

[5] = test system: asterixis grade in subjects with HE; test: Level of change from baseline in asterixis grade by treatment group, first study; format: in vivo, human; conditions: 550 mg BID, Baseline to EOT
Experimental: as §3

[6] = any increase from baseline in Conn score, 550 mg BID, N = 140, Days >=168
[7] = any increase from baseline in Conn score; 550 mg BID; N = 140; Days [0-28)
[8] = any increase from baseline in Conn score; 550 mg BID; N = 140; Days [28-56)
[9] = any increase from baseline in Conn score; 550 mg BID; N = 140; Days [56-84)
[10] = any increase from baseline in Conn score; 550 mg BID; N = 140; Days [84-140)
[11] = any increase from baseline in Conn score; 550 mg BID; N = 140; Days [140-168)
[12] = first study, ITT, first increase in Conn score, N = 140, treatment interval 0 to <28 days
[13] = first study, ITT, first increase in Conn score, N = 140, treatment interval 28 to <56 days
[14] = first study, ITT, first increase in Conn score, N = 140, treatment interval 56 to <84 days
[15] = first study, ITT, first increase in Conn score, N = 140, treatment interval 84 to <140 days
[16] = first study, ITT, first increase in Conn score, N = 140, treatment interval 140 to <168 days
[17] = first study, ITT, first increase in Conn score, N = 140, treatment interval ≥168 days
[18] = Treatment interval 0 to <28 days
[19] = Treatment interval 28 to <56 days
[20] = Treatment interval 56 to <84 days
[21] = Treatment interval 84 to <140 days
[22] = Treatment interval 140 to <168 days
[23] = any increase from baseline in asterixis grade, 550 mg BID, N = 140, Days >=168
[24] = any increase from baseline in asterixis grade; 550 mg BID; N = 140; Days [0-28)
[25] = any increase from baseline in asterixis grade; 550 mg BID; N = 140; Days [28-56)
[26] = any increase from baseline in asterixis grade; 550 mg BID; N = 140; Days [56-84)
[27] = any increase from baseline in asterixis grade; 550 mg BID; N = 140; Days [84-140)
[28] = any increase from baseline in asterixis grade; 550 mg BID; N = 140; Days [140-168)

In the case of `CO[C@H]1/C=C/O[C@@]2(C)Oc3c(C)c(O)c4c(O)c(c5c(nc6cc(C)ccn65)c4c3C2=O)NC(=O)/C(C)=C\C=C\[C@H](C)[C@H](O)[C@@H](C)[C@@H](O)[C@@H](C)[C@H](OC(C)=O)[C@@H]1C` [Rifaximin], the “Cumulative Occurrences of Events” value [1, 6] is reported as 37, the “Occurrences of Events” value [1, 6] is reported as 1 and the Survival [1, 6] is reported as 0.7302. The “Cumulative Occurrences of Events” value [1, 7] was 17, the “Occurrences of Events” value [1, 7] was 17 and the Survival [1, 7] was 1.0000. For the same compound, the “Cumulative Occurrences of Events” value [1, 8] was 22, the “Occurrences of Events” value [1, 8] was 5 and the Survival [1, 8] was 0.8777. For the same compound, the “Cumulative Occurrences of Events” value [1, 9] was 31, the “Occurrences of Events” value [1, 9] was 9 and the Survival [1, 9] was 0.8407. The “Cumulative Occurrences of Events” value [1, 10] was 36, the “Occurrences of Events” value [1, 10] was 5 and the Survival [1, 10] was 0.7713. The “Cumulative Occurrences of Events” value [1, 11] was 36, the “Occurrences of Events” value [1, 11] was 0 and the Survival [1, 11] was 0.7302. For the same compound, the “Cummulative number of events” value [1, 12] was 17, the Number of events [1, 12] was 17 and the “Probability of no increase in Conn score” value [1, 12] was 1.0000. The “Cummulative number of events” value [1, 13] was 22, the Number of events [1, 13] was 5 and the “Cummulative number of events” value [1, 14] was 31. The Number of events [1, 14] was 9, the “Cummulative number of events” value [1, 15] was 36 and the Number of events [1, 15] was 5. The “Cummulative number of events” value [1, 16] was 36, the Number of events [1, 16] was 0 and the “Cummulative number of events” value [1, 17] was 37. The Number of events [1, 17] was 1, the “subjects with increases in Conn score (of 140)” value ([1]; first study, rifaximin group) was 37 and the “time to first increase in Conn scores vs placebo (FIG. 4, Kaplan Meier)” value ([1]; in vivo) was “increased time to the first increase in Conn scores”. The “Change from baseline in Conn score, Max” value [2] was 2, the “Change from baseline in Conn score, Mean” value [2] was −0.1 and the “Change from baseline in Conn score, Median” value [2] was 0.0. For the same compound, the “Change from baseline in Conn score, Min” value [2] was −1, the “Number of subjects with change from baseline in Conn score of 0” value ([2]; n = 139) was 101 and the “Number of subjects with change from baseline in Conn score of 1” value ([2]; n = 139) was 10. For the same compound, the “Number of subjects with change from baseline in Conn score of 2” value ([2]; n = 139) was 2, the “Number of subjects with change from baseline in Conn score of 3” value ([2]; n = 139) was 0 and the “Number of subjects with change from baseline in Conn score of −1” value ([2]; n = 139) was 26. For the same compound, the “Percent of subjects with change from baseline in Conn score of 0” value ([2]; n = 139) was 72.7%, the “Percent of subjects with change from baseline in Conn score of 1” value ([2]; n = 139) was 7.2% and the “Percent of subjects with change from baseline in Conn score of 2” value ([2]; n = 139) was 1.4%. For the same compound, the “efficacy in patients with HE, rifaximin versus neomycin” value [3] was “comparable efficacy”, the “Probability of no increase in asterixis grade” value [4, 18] was 1.0000 and the “Cummulative number of events (increase in asterixis grade)” value [4, 18] was 13. For the same compound, the “Probability of no increase in asterixis grade” value [4, 19] was 0.9048, the “Cummulative number of events (increase in asterixis grade)” value [4, 19] was 20 and the “Number of events (increase in asterixis grade)” value [4, 19] was 7. The “Probability of no increase in asterixis grade” value [4, 20] was 0.8499, the “Cummulative number of events (increase in asterixis grade)” value [4, 20] was 27 and the “Number of events (increase in asterixis grade)” value [4, 20] was 7. For the same compound, the “Probability of no increase in asterixis grade” value [4, 21] was 0.7910, the “Cummulative number of events (increase in asterixis grade)” value [4, 21] was 30 and the “Number of events (increase in asterixis grade)” value [4, 21] was 3. The “Probability of no increase in asterixis grade” value [4, 22] was 0.7637, the “Cummulative number of events (increase in asterixis grade)” value [4, 22] was 31 and the “Number of events (increase in asterixis grade)” value [4, 22] was 1. For the same compound, the “Probability of no increase in asterixis grade” value ([4]; Treatment interval ≥168 days) was 0.7534, the “Cummulative number of events (increase in asterixis grade)” value ([4]; Treatment interval ≥168 days) was 32 and the “Number of events (increase in asterixis grade)” value ([4]; Treatment interval ≥168 days) was 1. For the same compound, the “Cumulative Occurrences of Events” value [4, 23] was 32, the “Occurrences of Events” value [4, 23] was 1 and the “Cumulative Occurrences of Events” value [4, 24] was 13. For the same compound, the “Occurrences of Events” value [4, 24] was 13, the “Cumulative Occurrences of Events” value [4, 25] was 20 and the “Occurrences of Events” value [4, 25] was 7. The “Cumulative Occurrences of Events” value [4, 26] was 27, the “Occurrences of Events” value [4, 26] was 7 and the “Cumulative Occurrences of Events” value [4, 27] was 30. For the same compound, the “Occurrences of Events” value [4, 27] was 3, the “Cumulative Occurrences of Events” value [4, 28] was 31 and the “Occurrences of Events” value [4, 28] was 1. For the same compound, the “subjects with increases in asterixis grade (of 140)” value ([4]; first study, rifaximin group) was 32, the “time to first increase in Asterixis grade vs placebo (FIG. 5, Kaplan Meier)” value ([4]; in vivo) was “increased time to the first increase in Asterixis grade” and the “Change from baseline in asterixis grade, Max” value [5] was 2. The “Change from baseline in asterixis grade, Mean” value [5] was 0.0, the “Change from baseline in asterixis grade, Median” value [5] was 0.0 and the “Change from baseline in asterixis grade, Min” value [5] was −2. The “Number of subjects with change from baseline in asterixis grade of 0” value ([5]; n = 139) was 108, the “Number of subjects with change from baseline in asterixis grade of 1” value ([5]; n = 139) was 10 and the “Number of subjects with change from baseline in asterixis grade of 2” value ([5]; n = 139) was 2. For the same compound, the “Number of subjects with change from baseline in asterixis grade of 3” value ([5]; n = 139) was 0, the “Number of subjects with change from baseline in asterixis grade of 4” value ([5]; n = 139) was 0 and the “Number of subjects with change from baseline in asterixis grade of −1” value ([5]; n = 139) was 18. The “Number of subjects with change from baseline in asterixis grade of −2” value ([5]; n = 139) was 1, the “Percent of subjects with change from baseline in asterixis grade of 0” value ([5]; n = 139) was 77.7% and the “Percent of subjects with change from baseline in asterixis grade of 1” value ([5]; n = 139) was 7.2%. The “Percent of subjects with change from baseline in asterixis grade of 2” value ([5]; n = 139) was 1.4%, the “Percent of subjects with change from baseline in asterixis grade of −1” value ([5]; n = 139) was 12.9% and the “Percent of subjects with change from baseline in asterixis grade of −2” value ([5]; n = 139) was 0.7%.
